Laboratory results: the supplement of paper PMC10307832

Each cell line was assayed with Cc1cnc(CNC(=O)c2c(=O)c3ccc(N4CCCN(C)CC4)nc3n3c2sc2ccccc23)cn1 [CX-5461] + O=C(c1cc(Cc2n[nH]c(=O)c3ccccc23)ccc1F)N1CCN(C(=O)C2CC2)CC1 [Olaparib] (partner 8 µM) (assay: relative viability (nuclei count vs DMSO), 5 days (fraction); higher = more cells survive). Conditions: first compound 0.01 µM.
How it was run: (§1)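 Dosing by pin tool came one day after lung cancer cell lines were seeded in 1536-well plates, using either one drug or a fixed anchor-drug dose plus five library-drug doses (not always all listed) in √10 steps. After 5 days, nuclei were counted on 4× images. Relative viability is treated-well nuclei count divided by vehicle-well nuclei count, and values are medians of duplicate plates.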

| Cell Line | relative viability |
| --- | --- |
| EKVX | 0.931 |
| LC-2-ad | 0.643 |
| NCI-H2170 | 0.613 |
| NCI-H1975 | 0.898 |
| RERF-LC-KJ | 0.785 |
| ABC-1 | 0.798 |
| NCI-H650 | 0.369 |
| PC-3 [JPC-3] | 1.15 |

Same assay, conditions: first compound 0.03162 µM

| Cell Line | relative viability |
| --- | --- |
| EKVX | 0.901 |
| LC-2-ad | 0.694 |
| NCI-H2170 | 0.566 |
| NCI-H1975 | 0.822 |
| RERF-LC-KJ | 0.827 |
| NCI-H650 | 0.399 |

Same assay, conditions: first compound 0.1 µM

| Cell Line | relative viability |
| --- | --- |
| EKVX | 0.983 |
| LC-2-ad | 0.689 |
| NCI-H2170 | 0.645 |
| NCI-H1975 | 0.68 |
| RERF-LC-KJ | 0.619 |
| ABC-1 | 1.04 |
| NCI-H650 | 0.399 |
| PC-3 [JPC-3] | 1.08 |

Same assay, conditions: first compound 0.3162 µM

| Cell Line | relative viability |
| --- | --- |
| LC-2-ad | 0.667 |
| NCI-H2170 | 0.599 |
| NCI-H1975 | 0.853 |
| RERF-LC-KJ | 0.848 |
| ABC-1 | 0.594 |
| NCI-H650 | 0.329 |
| PC-3 [JPC-3] | 1.15 |

Same assay, conditions: first compound 1 µM

| Cell Line | relative viability |
| --- | --- |
| EKVX | 0.73 |
| LC-2-ad | 0.617 |
| NCI-H2170 | 0.609 |
| NCI-H1975 | 0.558 |
| RERF-LC-KJ | 0.415 |
| ABC-1 | 0.517 |
| NCI-H650 | 0.337 |
| PC-3 [JPC-3] | 0.898 |

The cell lines below were run with O=C(Nc1cc(C(F)(F)F)cc(C(F)(F)F)c1)c1cc(Cl)ccc1O [IMD-0354] + CS(=O)(=O)N1CCN(Cc2cc3nc(-c4cccc5[nH]ncc45)nc(N4CCOCC4)c3s2)CC1 [Pictilisib] (partner 1 µM) in the same assay as above. Conditions: first compound 0.04 µM.
How it was run: as §1

| Cell Line | relative viability |
| --- | --- |
| EKVX | 0.477 |
| LC-2-ad | 0.494 |
| NCI-H2170 | 0.283 |
| NCI-H1975 | 0.329 |
| RERF-LC-KJ | 0.518 |
| ABC-1 | 0.753 |
| NCI-H650 | 1.09 |
| PC-3 [JPC-3] | 0.779 |

Same assay, conditions: first compound 0.1265 µM

| Cell Line | relative viability |
| --- | --- |
| EKVX | 0.465 |
| LC-2-ad | 0.424 |
| NCI-H2170 | 0.304 |
| NCI-H1975 | 0.316 |
| RERF-LC-KJ | 0.595 |
| ABC-1 | 0.643 |
| NCI-H650 | 0.89 |
| PC-3 [JPC-3] | 0.701 |

Same assay, conditions: first compound 0.4 µM

| Cell Line | relative viability |
| --- | --- |
| LC-2-ad | 0.404 |
| NCI-H2170 | 0.308 |
| NCI-H1975 | 0.26 |
| RERF-LC-KJ | 0.542 |
| ABC-1 | 0.447 |
| NCI-H650 | 0.597 |
| PC-3 [JPC-3] | 0.588 |

Same assay, conditions: first compound 1.265 µM

| Cell Line | relative viability |
| --- | --- |
| EKVX | 0.389 |
| LC-2-ad | 0.106 |
| NCI-H2170 | 0.284 |
| NCI-H1975 | 0.155 |
| RERF-LC-KJ | 0.233 |
| ABC-1 | 0.25 |
| NCI-H650 | 0.415 |
| PC-3 [JPC-3] | 0.376 |

Same assay, conditions: first compound 4 µM

| Cell Line | relative viability |
| --- | --- |
| EKVX | 0.174 |
| LC-2-ad | 0.136 |
| NCI-H2170 | 0.277 |
| NCI-H1975 | 0.137 |
| RERF-LC-KJ | 0.226 |
| ABC-1 | 0.263 |
| NCI-H650 | 0.239 |
| PC-3 [JPC-3] | 0.229 |

Each cell line was assayed with O=C(Nc1cc(C(F)(F)F)cc(C(F)(F)F)c1)c1cc(Cl)ccc1O [IMD-0354] + NC(=O)Nc1cc(-c2cccc(F)c2)sc1C(=O)N[C@H]1CCCNC1 [AZD7762] (partner 0.2 µM) in the same assay as above. Conditions: first compound 0.04 µM.
How it was run: as §1

| Cell Line | relative viability |
| --- | --- |
| EKVX | 0.741 |
| LC-2-ad | 0.902 |
| NCI-H2170 | 0.946 |
| NCI-H1975 | 0.781 |
| RERF-LC-KJ | 1.1 |
| ABC-1 | 1.26 |
| NCI-H650 | 0.926 |
| PC-3 [JPC-3] | 1.01 |

Same assay, conditions: first compound 0.1265 µM

| Cell Line | relative viability |
| --- | --- |
| EKVX | 0.625 |
| LC-2-ad | 0.85 |
| NCI-H2170 | 0.978 |
| NCI-H1975 | 0.771 |
| RERF-LC-KJ | 1 |
| ABC-1 | 0.98 |
| NCI-H650 | 1.01 |
| PC-3 [JPC-3] | 0.751 |

Same assay, conditions: first compound 0.4 µM

| Cell Line | relative viability |
| --- | --- |
| LC-2-ad | 0.504 |
| NCI-H2170 | 0.818 |
| NCI-H1975 | 0.655 |
| ABC-1 | 0.522 |
| NCI-H650 | 0.822 |
| PC-3 [JPC-3] | 0.64 |

Same assay, conditions: first compound 1.265 µM

| Cell Line | relative viability |
| --- | --- |
| EKVX | 0.328 |
| LC-2-ad | 0.15 |
| NCI-H2170 | 0.767 |
| NCI-H1975 | 0.724 |
| RERF-LC-KJ | 0.327 |
| ABC-1 | 0.257 |
| NCI-H650 | 0.566 |
| PC-3 [JPC-3] | 0.291 |

Same assay, conditions: first compound 4 µM

| Cell Line | relative viability |
| --- | --- |
| EKVX | 0.21 |
| LC-2-ad | 0.24 |
| NCI-H2170 | 0.151 |
| NCI-H1975 | 0.266 |
| RERF-LC-KJ | 0.184 |
| ABC-1 | 0.331 |
| NCI-H650 | 0.174 |
| PC-3 [JPC-3] | 0.355 |

These cell lines were tested with O=C(Nc1cc(C(F)(F)F)cc(C(F)(F)F)c1)c1cc(Cl)ccc1O [IMD-0354] + Nc1ncn([C@H]2C[C@H](O)[C@@H](CO)O2)c(=O)n1 [Decitabine] (partner 2 µM) in the same assay as above. Conditions: first compound 0.04 µM.
How it was run: as §1

| Cell Line | relative viability |
| --- | --- |
| EKVX | 0.294 |
| LC-2-ad | 0.876 |
| NCI-H2170 | 0.467 |
| NCI-H1975 | 0.389 |
| RERF-LC-KJ | 0.901 |
| ABC-1 | 1.23 |
| NCI-H650 | 0.303 |
| PC-3 [JPC-3] | 0.984 |

Same assay, conditions: first compound 0.1265 µM

| Cell Line | relative viability |
| --- | --- |
| EKVX | 0.316 |
| LC-2-ad | 0.698 |
| NCI-H2170 | 0.457 |
| NCI-H1975 | 0.409 |
| RERF-LC-KJ | 0.64 |
| ABC-1 | 0.985 |
| NCI-H650 | 0.3 |
| PC-3 [JPC-3] | 0.813 |

Same assay, conditions: first compound 0.4 µM

| Cell Line | relative viability |
| --- | --- |
| LC-2-ad | 0.5 |
| NCI-H2170 | 0.37 |
| NCI-H1975 | 0.36 |
| RERF-LC-KJ | 0.493 |
| ABC-1 | 0.851 |
| NCI-H650 | 0.346 |
| PC-3 [JPC-3] | 0.756 |

Same assay, conditions: first compound 1.265 µM

| Cell Line | relative viability |
| --- | --- |
| EKVX | 0.36 |
| LC-2-ad | 0.322 |
| NCI-H2170 | 0.443 |
| NCI-H1975 | 0.2 |
| RERF-LC-KJ | 0.183 |
| NCI-H650 | 0.288 |
| PC-3 [JPC-3] | 0.481 |

Same assay, conditions: first compound 4 µM

| Cell Line | relative viability |
| --- | --- |
| EKVX | 0.155 |
| LC-2-ad | 0.199 |
| NCI-H2170 | 0.396 |
| NCI-H1975 | 0.21 |
| RERF-LC-KJ | 0.166 |
| ABC-1 | 0.36 |
| NCI-H650 | 0.201 |
| PC-3 [JPC-3] | 0.336 |
